Measurements from US8080582B2, “Derivatives of 8-epiblechnic acid and their effects on down-regulation of endothelin (ETA) receptor mRNA” (ScinoPharm Taiwan Ltd., priority 2008, dated 2011).

Experiments:
Type in all cases: cell-based
ETBR protein expression = assay: Western blot of ETBR protein expression in vascular smooth muscle cells; details: 100 μg/ml, 48 hrs
Procedure: The smooth muscle cells (5×10^5 cells in 35 mm culture dish) were treated with Sal-B and its analogs for 48 hrs, and then a proteinase inhibitor solution was used to collect proteins from the cells.
The protein concentrations in the samples were calculated by using BSA as the standards to construct a standard curve. After mixing Bradford Protein assay reagent evenly with the standards or the samples, the OD595 absorption values were measured. Standard curve was constructed by plotting OD595 values of the BSA standards versus their concentrations. The protein concentrations of the samples were calculated from the standard curve.
Bio-Rad's Mini-Protean III Dual Slab Cell instrument was used. A 12% polyacrylamide separating gel solution was prepared and placed into a electrophoretic gel preparation device. Deionized water was added to flat the surface of the separating gel solution, and the water was poured off after the gel had coagulated. A stacking gel solution containing 5% polyacrylamide was added and then a comb was inserted. The comb was removed after the stacking gel had coagulated, and the gel was placed into an upright electrophoresis tank. A suitable amount of running buffer was added, and then the protein samples were loaded into the wells of stacking gel layer. […]

ETAR mRNA expression = assay: Real-time quantitative RT-PCR of ETAR mRNA in smooth muscle cells (A10); details: vascular smooth muscle cells, 100 μg/ml, 48 hrs
Procedure: Extraction of cellular RNA: Subculturing smooth muscle cells to 100-mm culture dishes. After the cells had filled the culture dishes, Sal-B and its analogs were added to treat the cells for 48 hrs. After that, 1×PBS solutions were added to wash the cells three times. After adding 1 ml TRIzol, the cells were scraped off and placed in 1.5 ml micro-centrifuge tubes. Following the addition of 0.2 ml chloroform to each tube, the tubes were shaken, left at room temperature for 3 min., and run in a centrifuge at 12,000 rpm for 15 min. The supernatant liquid was removed and the cells placed in new micro-centrifuge tubes. After adding an amount of isopropyl alcohol equivalent to one-half of the volume of the supernatant liquid, and mixing until homogeneous, the samples were allowed to stand at room temperature for 10 min. The supernatant liquid was removed after centrifugation at 12,000 rpm for 10 min. 1 ml 70% alcohol was added to wash out salts, followed by centrifugation for 5 min. and removal of supernatant liquid. The samples were dissolved in 50 μl DEPC-H2O after drying.
(1) cDNA synthesis: 1 μl Random hexamer primer (20 μM) and 1 μl dNTP(10 mm) were added to 3 μg RNA, which was allowed to react at 65° C. for 5 min., and then placed on ice promptly. After the addition of 2 μl 10× reaction buffer, 0.5 μl RNaseOUT (40 unit/μl) and 1 μl SuperScript III RT (200 unit/μl), the solution was mixed until homogeneous, and allowed to react at 50° C. for 50 min. After that, the mixture was heated to 85° C. for 5 min. to terminate the enzymatic reaction. The samples were preserved at −70° C. for later use.
(2) PCR quantitative analysis: After adding 7.5 μl PCR primer mix (400 nm each) and 15 μl SYBR Green dye reagent to the 7.5 μl cDNA template, the solution was placed in Bio-Rad's iCycler for PCR reaction. The resulting data was inputted into Gene Expression Analysis for iCycler iQ Real-Time PCR Detection System for quantitative analysis of gene expression.
Furthermore, after treating vascular smooth muscle cells with 100 μg/ml of either Sal-B or EBA for 48 hrs, the identical concentrations of cellular whole RNA were sampled for the synthesis of cDNA by using reverse transcriptase. The PCR method was employed to determine the amounts of endothelin receptor mRNA expression. […] For the analysis of ETAR mRNA expression by using the real-time PCR method, vascular smooth muscle cells at full confluence 100-mm culture dishes were treated with 100 μg/ml of either Sal-B or EBA for 48 hrs. The identical concentrations of cellular whole RNA were sampled for the synthesis of cDNA by using reverse transcriptase. The real-time PCR method was used to compare the amounts of ETAR mRNA expression.
The different analogs, compounds A to F, had different effects on ETAR mRNA expression. The control group represented treating smooth muscle cells (A10) with DMSO, and the positive control group represented treating the cells with Sal-B. The smooth muscle cells were treated with 0.2 mM Sal-B and compounds A to F for 48 hrs. The identical concentrations of cellular RNA were sampled for the synthesis of cDNA by using reverse transcriptase. The real-time PCR method was employed to determine the amounts of ETAR mRNA expression. Compared with the control group, compound B had the least effect on down-regulating ETAR mRNA expression, as approximately 50% of the ETAR mRNA remained after the treatment. […]

[1] = system: ETAR gene expression in MCF-7 cells; assay: PCR of ETAR gene expression in MCF-7 cancer cells; details: 48 hrs
Procedure: PC-3 and MCF-7 cancer cells were treated with Sal-B and EBA for 48 hrs, and the identical concentrations of cellular whole RNA were sampled for the synthesis of cDNA by using reverse transcriptase. The PCR method was then used to compare the amounts of endothelin receptor mRNA expression. While the PC-3 cells were treated with either Sal-B or EBA, its ETAR gene expression was not reduced.

| Compound | ETBR protein expression compared with control (ETBR protein expression) | ETAR mRNA expression, % of that in the control (ETAR mRNA expression) | ETAR gene (mRNA) expression [1] |
| --- | --- | --- | --- |
| epiblechnic acid [EBA] | no effect on ETBR protein expression | roughly 51% | reduced significantly |
| O=C(/C=C/c1ccc(O)c2c1[C@H](C(=O)O[C@H](Cc1ccc(O)c(O)c1)C(=O)[O-])[C@@H](c1ccc(O)c(O)c1)O2)O[C@H](Cc1ccc(O)c(O)c1)C(=O)[O-].[Mg+2] [Sal-B, magnesium lithospermate B] | no effect on ETBR protein expression | approximately 27% | can reduce the expression of ETAR mRNA |
